We go through 1 molecule from publication PMC6264224, “A Practical Approach to New (5Z) 2-Alkylthio-5-arylmethylene-1-methyl-1,5-dihydro-4H-imidazol-4-one Derivatives” (Molecules, 2011).

Usually melting point stands for the temperature, or range, at which the solid turns liquid. Consider `COc1ccc(/C=C2/C(=O)NC(=S)N2C)cc1O` [4d, (5Z)-5-(3-Hydroxy-4-methoxybenzylidene)-1-methyl-2-thioxoimidazolidin-4-one], for which the melting point lay within 203 to 205 °C.
